From ChEMBL document CHEMBL3784982, “Novel dihydropyrazole-chromen: Design and modulates hTERT inhibition proliferation of MGC-803” (Eur J Med Chem, 2016)
Values belong to the molecule of their own block, whether it stands above or below them. Activity calls are given as the source filed them. No cut-off for these calls is given here.

Key:
MGC-803 = assay: Induction of cell cycle arrest in human MGC803 cells assessed as accumulation at G0/G1 phase at 1 uM after 48 hrs by propidium iodide staining-based flow cytometry (reference value: 32.7%); format: functional
[1] = molecular target: Telomerase reverse transcriptase (Homo sapiens) (UniProt O14746); assay: Inhibition of human TERT protein expression in human MGC803 cells at 1 uM after 48 hrs by Western blotting method; format: cell-based; conditions: MGC-803
Telomerase reverse transcriptase (Homo sapiens), sequence (O14746 whole entry): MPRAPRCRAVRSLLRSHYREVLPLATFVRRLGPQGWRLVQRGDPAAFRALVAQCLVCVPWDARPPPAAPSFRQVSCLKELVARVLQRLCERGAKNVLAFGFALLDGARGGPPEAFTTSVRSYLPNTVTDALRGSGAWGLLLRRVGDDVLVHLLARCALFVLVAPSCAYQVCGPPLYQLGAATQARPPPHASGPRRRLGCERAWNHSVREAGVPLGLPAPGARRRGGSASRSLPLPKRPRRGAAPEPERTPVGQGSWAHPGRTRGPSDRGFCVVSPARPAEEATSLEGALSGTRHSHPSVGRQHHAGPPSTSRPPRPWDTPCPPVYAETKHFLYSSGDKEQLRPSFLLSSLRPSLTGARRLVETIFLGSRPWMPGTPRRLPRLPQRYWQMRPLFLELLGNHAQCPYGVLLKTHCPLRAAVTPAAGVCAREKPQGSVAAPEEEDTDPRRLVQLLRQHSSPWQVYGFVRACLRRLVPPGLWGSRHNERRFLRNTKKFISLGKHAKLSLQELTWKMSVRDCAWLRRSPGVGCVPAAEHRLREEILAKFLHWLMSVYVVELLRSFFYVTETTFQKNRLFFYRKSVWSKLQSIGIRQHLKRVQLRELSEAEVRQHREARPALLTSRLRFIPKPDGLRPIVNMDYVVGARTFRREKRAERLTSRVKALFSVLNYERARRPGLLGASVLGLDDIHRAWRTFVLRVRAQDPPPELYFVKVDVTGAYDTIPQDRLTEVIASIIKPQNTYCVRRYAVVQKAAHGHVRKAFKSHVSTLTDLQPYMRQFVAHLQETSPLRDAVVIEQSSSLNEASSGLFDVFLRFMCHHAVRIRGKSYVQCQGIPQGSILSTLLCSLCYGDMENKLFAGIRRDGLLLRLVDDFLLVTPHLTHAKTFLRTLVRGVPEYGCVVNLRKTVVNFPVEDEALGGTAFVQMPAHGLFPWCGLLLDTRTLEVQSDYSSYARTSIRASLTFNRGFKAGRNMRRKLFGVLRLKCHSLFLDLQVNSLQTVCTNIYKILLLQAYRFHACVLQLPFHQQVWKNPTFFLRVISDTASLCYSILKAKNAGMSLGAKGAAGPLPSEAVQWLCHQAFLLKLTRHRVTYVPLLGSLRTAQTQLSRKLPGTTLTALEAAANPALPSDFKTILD

[2] = Antiproliferative activity against human SGC7901 cells after 48 hrs by MTT assay; format: functional, cell-based; conditions: SGC-7901, 48 h
Bcap37 = assay: Antiproliferative activity against human Bcap37 cells after 48 hrs by MTT assay; format: functional, cell-based; conditions: Bcap37, 48 h
[3] = Antiproliferative activity against human MGC803 cells after 48 hrs by MTT assay; format: functional, cell-based; conditions: MGC-803, 48 h
[4] = Antiproliferative activity against human PC3 cells after 48 hrs by MTT assay; format: functional, cell-based; conditions: PC-3, 48 h
[5] = Cytotoxicity against human GES-1 cells after 48 hrs by MTT assay; format: cell-based; conditions: GES1, 48 h
[6] = Cytotoxicity against human L02 cells after 48 hrs by MTT assay; format: cell-based; conditions: L02, 48 h
[7] = molecular target: Telomerase reverse transcriptase (Homo sapiens) (UniProt O14746); assay: Inhibition of human TERT-regulated Wnt/beta-catenin signalling in human MGC803 cells assessed as downregulation of beta-catenin protein expression after 48 hrs by Western blotting method; format: cell-based; conditions: MGC-803
[8] = molecular target: Telomerase reverse transcriptase (Homo sapiens) (UniProt O14746); assay: Inhibition of human TERT-regulated Wnt/beta-catenin signalling in human MGC803 cells assessed as downregulation of beta-catenin mRNA expression by RT-PCR method; format: cell-based; conditions: MGC-803
[9] = molecular target: Telomerase reverse transcriptase (Homo sapiens) (UniProt O14746); assay: Inhibition of human TERT-regulated Wnt/beta-catenin signalling in human MGC803 cells assessed as downregulation of cyclin D1 protein expression after 48 hrs by Western blotting method; format: cell-based; conditions: MGC-803
[10] = molecular target: Telomerase reverse transcriptase (Homo sapiens) (UniProt O14746); assay: Inhibition of human TERT-regulated Wnt/beta-catenin signalling in human MGC803 cells assessed as downregulation of cyclin D1 mRNA expression by RT-PCR method; format: cell-based; conditions: MGC-803
[11] = molecular target: Telomerase reverse transcriptase (Homo sapiens) (UniProt O14746); assay: Inhibition of human TERT-regulated Wnt/beta-catenin signalling in human MGC803 cells assessed as downregulation of c-myc protein expression after 48 hrs by Western blotting method; format: cell-based; conditions: MGC-803
[12] = molecular target: Telomerase reverse transcriptase (Homo sapiens) (UniProt O14746); assay: Inhibition of human TERT-regulated Wnt/beta-catenin signalling in human MGC803 cells assessed as downregulation of c-myc mRNA expression by RT-PCR method; format: cell-based; conditions: MGC-803
[13] = molecular target: Telomerase reverse transcriptase (Homo sapiens) (UniProt O14746); assay: Inhibition of human TERT expressed in human MGC803 cells assessed as TERT-regulated Wnt/beta-catenin signalling by measuring decrease in beta-catenin protein expression after 48 hrs by Western blotting method; format: cell-based; conditions: MGC-803
[14] = molecular target: Telomerase reverse transcriptase (Homo sapiens) (UniProt O14746); assay: Inhibition of human TERT expressed in human MGC803 cells assessed as TERT-regulated Wnt/beta-catenin signalling by measuring decrease in c-myc protein expression after 48 hrs by Western blotting method; format: cell-based; conditions: MGC-803
[15] = molecular target: Telomerase reverse transcriptase (Homo sapiens) (UniProt O14746); assay: Inhibition of human TERT expressed in human MGC803 cells assessed as TERT-regulated Wnt/beta-catenin signalling by measuring decrease in cyclin D1 protein expression after 48 hrs by Western blotting method; format: cell-based; conditions: MGC-803
[16] = molecular target: Telomerase reverse transcriptase (Homo sapiens) (UniProt O14746); assay: Inhibition of human TERT expressed in human MGC803 cells assessed as TERT-regulated Wnt/beta-catenin signalling by measuring decrease in beta-catenin mRNA expression after 48 hrs by RT-PCR method; format: cell-based; conditions: MGC-803
[17] = molecular target: Telomerase reverse transcriptase (Homo sapiens) (UniProt O14746); assay: Inhibition of human TERT expressed in human MGC803 cells assessed as TERT-regulated Wnt/beta-catenin signalling by measuring decrease in c-myc mRNA expression after 48 hrs by RT-PCR method; format: cell-based; conditions: MGC-803
[18] = molecular target: Telomerase reverse transcriptase (Homo sapiens) (UniProt O14746); assay: Inhibition of human TERT expressed in human MGC803 cells assessed as TERT-regulated Wnt/beta-catenin signalling by measuring decrease in cyclin D1 mRNA expression after 48 hrs by RT-PCR method; format: cell-based; conditions: MGC-803
[19] = Inhibition of human TERT mRNA expression in human MGC803 cells at 40 umol/L measured at 48 hrs by RT-PCR method; format: functional, cell-based; conditions: MGC-803
[20] = molecular target: Telomerase reverse transcriptase (Homo sapiens) (UniProt O14746); assay: Inhibition of human TERT-regulated Wnt/beta-catenin signalling in human MGC803 cells assessed as decrease in beta-catenin mRNA expression at 40 umol/L measured at 48 hrs by RT-PCR method; format: cell-based; conditions: MGC-803
[21] = molecular target: Telomerase reverse transcriptase (Homo sapiens) (UniProt O14746); assay: Inhibition of human TERT-regulated Wnt/beta-catenin signalling in human MGC803 cells assessed as decrease in cyclin D1 mRNA expression at 40 umol/L measured at 48 hrs by RT-PCR method; format: cell-based; conditions: MGC-803
[22] = molecular target: Telomerase reverse transcriptase (Homo sapiens) (UniProt O14746); assay: Inhibition of human TERT-regulated Wnt/beta-catenin signalling in human MGC803 cells assessed as decrease in c-myc mRNA expression at 40 umol/L measured at 48 hrs by RT-PCR method; format: cell-based; conditions: MGC-803
[23] = molecular target: Telomerase reverse transcriptase (Homo sapiens) (UniProt O14746); assay: Inhibition of human TERT-regulated Wnt/beta-catenin signalling in human MGC803 cells assessed as decrease in c-myc protein expression at 40 umol/L measured at 48 hrs by Western blotting method; format: cell-based; conditions: MGC-803
[24] = molecular target: Telomerase reverse transcriptase (Homo sapiens) (UniProt O14746); assay: Inhibition of human TERT-regulated Wnt/beta-catenin signalling in human MGC803 cells assessed as decrease in cyclin D1 protein expression at 40 umol/L measured at 48 hrs by Western blotting method; format: cell-based; conditions: MGC-803
[25] = molecular target: Telomerase reverse transcriptase (Homo sapiens) (UniProt O14746); assay: Inhibition of human TERT-regulated Wnt/beta-catenin signalling in human MGC803 cells assessed as decrease in beta-catenin protein expression at 40 umol/L measured at 48 hrs by Western blotting method; format: cell-based; conditions: MGC-803
[26] = molecular target: Telomerase reverse transcriptase (Homo sapiens) (UniProt O14746); assay: Inhibition of human TERT protein expression in human MGC803 cells at 40 umol/L measured at 48 hrs by Western blotting method; format: cell-based; conditions: MGC-803
[27] = molecular target: Telomerase reverse transcriptase (Homo sapiens) (UniProt O14746); assay: Inhibition of human TERT protein expression in human MGC803 cells at […] after 48 hrs by Western blotting method; format: cell-based; conditions: MGC-803
[28] = molecular target: Telomerase reverse transcriptase (Homo sapiens) (UniProt O14746); assay: Inhibition of human TERT-regulated Wnt/beta-catenin signalling in human MGC803 cells assessed as decrease in beta-catenin protein expression at […] after 48 hrs by Western blotting method; format: cell-based; conditions: MGC-803
[29] = molecular target: Telomerase reverse transcriptase (Homo sapiens) (UniProt O14746); assay: Inhibition of human TERT-regulated Wnt/beta-catenin signalling in human MGC803 cells assessed as decrease in cyclin D1 protein expression at […] after 48 hrs by Western blotting method; format: cell-based; conditions: MGC-803
[30] = molecular target: Telomerase reverse transcriptase (Homo sapiens) (UniProt O14746); assay: Inhibition of human TERT-regulated Wnt/beta-catenin signalling in human MGC803 cells assessed as decrease in c-myc protein expression at […] after 48 hrs by Western blotting method; format: cell-based; conditions: MGC-803
[31] = molecular target: Telomerase reverse transcriptase (Homo sapiens) (UniProt O14746); assay: Inhibition of human TERT-regulated Wnt/beta-catenin signalling in human MGC803 cells assessed as decrease in c-myc mRNA expression at […] after 48 hrs by RT-PCR method; format: cell-based; conditions: MGC-803
[32] = molecular target: Telomerase reverse transcriptase (Homo sapiens) (UniProt O14746); assay: Inhibition of human TERT-regulated Wnt/beta-catenin signalling in human MGC803 cells assessed as decrease in cyclin-D1 mRNA expression at […] after 48 hrs by RT-PCR method; format: cell-based; conditions: MGC-803
[33] = molecular target: Telomerase reverse transcriptase (Homo sapiens) (UniProt O14746); assay: Inhibition of human TERT-regulated Wnt/beta-catenin signalling in human MGC803 cells assessed as decrease in beta-catenin mRNA expression at […] after 48 hrs by RT-PCR method; format: cell-based; conditions: MGC-803
[34] = Inhibition of human TERT mRNA expression in human MGC803 cells at […] after 48 hrs by RT-PCR method; format: functional, cell-based; conditions: MGC-803

inhibition [1]: Active | inhibition [7]: Active | inhibition [8]: Active | inhibition [9]: Active | inhibition [10]: Active | inhibition [11]: Active | inhibition [12]: Active | inhibition [13]: Active | inhibition [14]: Active | inhibition [15]: Active | inhibition [16]: Active | inhibition [17]: Active | inhibition [18]: Active
Structure (SMILES): O=C(CN1CCCCC1)N1N=C(c2ccccc2)CC1c1cc2ccccc2oc1=O (stereo not given)
Activity (MGC-803): 50.6% | IC50 [2]: 0.46 µM | IC50 (Bcap37): 5.3 µM | IC50 [3]: 1.41 µM | IC50 [4]: 4.12 µM | IC50 [5]: 2300 µM | IC50 [6]: 2500 µM

Structure (SMILES): COc1cccc2c1C(=O)c1c(O)c3c(c(O)c1C2=O)C[C@@](O)(C(=O)CO)C[C@@H]3O[C@H]1C[C@H](N)[C@H](O)[C@H](C)O1 [DOXORUBICIN]
IC50 [2]: 0.8 µM | IC50 (Bcap37): 1.19 µM | IC50 [3]: 1.01 µM | IC50 [4]: 1.49 µM

inhibition [20]: Active | inhibition [21]: Active | inhibition [22]: Active | inhibition [23]: Active | inhibition [24]: Active | inhibition [25]: Active | inhibition [26]: Active
Structure (SMILES): CCc1ccc(-c2nc(CSCC(=O)NCCc3ccccc3)c(C)o2)cc1
inhibition [19]: Active

inhibition [27]: Active | inhibition [28]: Active | inhibition [29]: Active | inhibition [30]: Active | inhibition [31]: Active | inhibition [32]: Active | inhibition [33]: Active
Structure (SMILES): Cc1cn([C@H]2C[C@H](N=[N+]=[N-])[C@@H](CO)O2)c(=O)[nH]c1=O
inhibition [34]: Active
